Results on 4 compounds are retold here after patent publication US4835172A, “Novel benzamides, intermediates and process for the preparation and therapeutic use thereof” (Societe D'Etudes Scientifiques et Industrielles de …, priority 1985, dated 1989).

One data set in a line: acute toxicity in mice. Conditions: mouse, in vivo. The procedure: In the course of this pharmacological research a toxicological study of the most preferred compound was carried out.
Another data set concerns D1 receptors. The data set is described as follows: displacement of 3H-piflutixol, ligand of D1 receptors, in vitro on rat striatum preparations. The class given is binding. An excerpt:
(§1) These tests which consisted of studying the displacement of specific ligands of dopamine receptors by compounds of the invention. The compound in Example I was found, for instance, to have an inhibiting concentration (50), I.C.

In another data set the target is T1, D2 receptors (Rattus norvegicus, UniProt P61169).
T1 construct: in vitro tests on rat striatum preparations; from tissue; host or cells: rat striatum preparations
T1 sequence (P61169 whole entry): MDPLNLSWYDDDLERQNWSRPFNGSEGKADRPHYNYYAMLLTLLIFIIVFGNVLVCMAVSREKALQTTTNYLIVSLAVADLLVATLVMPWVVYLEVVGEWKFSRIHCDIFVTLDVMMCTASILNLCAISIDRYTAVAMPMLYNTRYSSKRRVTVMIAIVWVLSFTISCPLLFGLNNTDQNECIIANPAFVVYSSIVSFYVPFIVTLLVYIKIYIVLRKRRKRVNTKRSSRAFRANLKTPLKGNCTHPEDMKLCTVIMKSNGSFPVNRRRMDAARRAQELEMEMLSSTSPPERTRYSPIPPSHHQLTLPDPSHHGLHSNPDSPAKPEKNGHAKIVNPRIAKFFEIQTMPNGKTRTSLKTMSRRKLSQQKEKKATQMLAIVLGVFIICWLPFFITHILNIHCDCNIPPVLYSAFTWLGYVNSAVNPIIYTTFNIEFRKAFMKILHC
The data set is described as follows: displacement of 3H-spiperone, ligand of D2 receptors, in vitro on rat striatum preparations. The class given is binding. Conditions: read-out: inhibiting concentration (50), I.C. 50, relative to 3H-spiperone.
Excerpt: as §1

The subject of another data set is prolactin. Kind of data set: prolactin content in serum after subcutaneous administration in the male rat. It is filed as in vivo. The method, then: The blood samples had been taken 10 and 30 minutes after administration of the compound, whereas the same dose of a reference antidopaminergic (Sulpiride) studied under the same conditions, multiplies the amount of basic prolactinaemia by a factor of about 10.

The test system of data set [1] is reserpine-induced motor depression and ptosis. Kind of data set: reserpine model of behavioural depression. The class given is in vivo, mice or rats. The procedure: In view of this activating property of the compounds of the invention, animal models of behavioural depression were used to investigate a possible antidepressive effect. For example, mice pre-treated with reserpine (5 mg/kg) intraperitoneally 18 hours before the test, or rats receiving reserpine in the nucleus accumbens 1 μg/24 h) were tested.

Another data set is described as follows: solubility in water. It is filed as physicochemical.

In brackets after ≈: the same amount, converted by molar mass. Read-outs that look alike come from different tables or passages of the source.

With `CCN(CC)CCNC(=O)c1cc(Cl)c(NC2=NCCN2)cc1OC` [Example I, N-[(DIETHYL AMINO) ETHYL] 2-METHOXY 4-[(1-H 4,5-DIHYDRO 2-IMIDAZOLYL) AMINO] 5-CHLORO BENZAMIDE], the LD50 in the data set “acute toxicity in mice” (ip, read-out: LD 50 i.p.) was 37.7 to 40.8 mg/kg; in “acute toxicity in mice” (iv, read-out: LD 50 i.v.), 12.8 to 14.4 mg/kg; in the data set “acute toxicity in mice” (po, per os, read-out: LD 50 per os), 165 to 180 mg/kg; in “acute toxicity in mice” (sc, read-out: LD 50 s.c.), 52 to 54 mg/kg. For the same compound, the “displacement of 3H-piflutixol” value in the data set on D1 receptors was “no displacement”. Moreover, the IC50 on D2 receptors is above 100 µM. In the data set with prolactin (1 mg/kg s.c., eight rats, 10 and 30 minutes after administration), the “increase in prolactin content in serum” value is “no increase in prolactin content”. The “activity compared with imipramine against reserpine” value in data set [1] (0.1 mg/kg s.c. versus imipramine 30 mg/kg i.p.) is “as active at that dose as 30 mg/kg of imipramine”. The “effect on reserpine-induced motor depression and ptosis” value in data set [1] (0.1 mg/kg s.c., reserpine 5 mg/kg i.p. (mice) or in nucleus accumbens 1 μg/24 h (rats)) is “counteracts motor depression and ptosis”.
Consider `CCN1CCCC1CNC(=O)c1cc(S(N)(=O)=O)ccc1OC` (stereo not shown) [Sulpiride, reference compound], for which the “factor by which the amount of basic prolactinaemia is multiplied” value with prolactin (same dose (1 mg/kg) and same conditions) is recorded as “about 10”.
As to `COc1cc(NC2=NCCO2)c(Cl)cc1C(=O)NCC1CCCN1CC1CC1` (stereo not shown) [XL, N-(1-CYCLOPROPYLMETHYL 2-PYRROLIDINYLMETHYL) 2-METHOXY 4-[(4,5-DIHYDRO 2-OXAZOLYL) AMINO] 5-CHLORO BENZAMIDE], the solubility in “solubility in water” (monohydrochloride prepared for immediate use, read-out: soluble in water, monohydrochloride) was around 320 mg/mL (≈ 786 mM).
Consider `C=CCOc1cc(NC2=NCCN2)c(Cl)cc1C(=O)NCCN(CC)CC` [XXXIII, N-(DIETHYLAMINO ETHYL) 2-ALLYLOXY 4-[(1-H 4,5 DIHYDRO 2-IMIDAZOLYL) AMINO] 5-CHLORO BENZAMIDE], for which the solubility in “solubility in water” (hydrochloride prepared for immediate use, read-out: soluble in water, hydrochloride) was 200 mg/mL (≈ 508 mM); in the data set “solubility in water” (the product (base), read-out: insoluble in water) it was 10 mg/mL (≈ 25.4 mM).
